Experimental data: the NIST ThermoML archive (doi:10.1021/acs.jced.5b00760)
Numbers after ± are expanded uncertainties.

Details: Liquid, Closed cell (Static) method

## O [water]
322.13 K
  vapor or sublimation pressure: 11.12 ± 0.6 kPa
329.07 K
  vapor or sublimation pressure: 16.75 ± 0.6 kPa
337.68 K
  vapor or sublimation pressure: 24.18 ± 0.6 kPa
341.81 K
  vapor or sublimation pressure: 29.68 ± 0.61 kPa
347.45 K
  vapor or sublimation pressure: 37.91 ± 0.78 kPa
350.9 K
  vapor or sublimation pressure: 43.56 ± 0.89 kPa
355.11 K
  vapor or sublimation pressure: 51.68 ± 1.1 kPa
358.38 K
  vapor or sublimation pressure: 58.49 ± 1.2 kPa

## c1ccccc1 [benzene]
303.15 K
  vapor or sublimation pressure: 15.63 ± 0.6 kPa
313.15 K
  vapor or sublimation pressure: 24.45 ± 0.6 kPa
323.15 K
  vapor or sublimation pressure: 36.6 ± 0.75 kPa
333.15 K
  vapor or sublimation pressure: 53.12 ± 1.1 kPa
343.15 K
  vapor or sublimation pressure: 74.82 ± 1.5 kPa

## c1ccsc1 [thiophene]
303.15 K
  vapor or sublimation pressure: 13.29 ± 0.6 kPa
308.15 K
  vapor or sublimation pressure: 16.61 ± 0.6 kPa
313.15 K
  vapor or sublimation pressure: 20.59 ± 0.6 kPa
318.15 K
  vapor or sublimation pressure: 25.31 ± 0.6 kPa
323.15 K
  vapor or sublimation pressure: 30.87 ± 0.64 kPa
328.15 K
  vapor or sublimation pressure: 37.4 ± 0.77 kPa
333.15 K
  vapor or sublimation pressure: 44.98 ± 0.92 kPa

## Cc1ccccc1 [toluene]
323.16 K
  vapor or sublimation pressure: 12.29 ± 0.6 kPa
325.16 K
  vapor or sublimation pressure: 13.37 ± 0.6 kPa
327.15 K
  vapor or sublimation pressure: 14.53 ± 0.6 kPa
329.15 K
  vapor or sublimation pressure: 15.77 ± 0.6 kPa
332.15 K
  vapor or sublimation pressure: 17.8 ± 0.6 kPa
334.25 K
  vapor or sublimation pressure: 19.35 ± 0.6 kPa
337.65 K
  vapor or sublimation pressure: 22.08 ± 0.6 kPa
339.65 K
  vapor or sublimation pressure: 23.83 ± 0.6 kPa
342.3 K
  vapor or sublimation pressure: 26.32 ± 0.6 kPa
342.45 K
  vapor or sublimation pressure: 26.47 ± 0.6 kPa
